In PMC6787163, “Systematic Dual Targeting of Dendritic Cell C-Type Lectin Receptor DC-SIGN and TLR7 Using a Trifunctional Mannosylated Antigen” (Frontiers in Chemistry, 2019):
Where “and” joins values, the source holds several entries; their conditions need not be identical. Equal entries are not always repeated.

Legend:
[1] = molecular target: T1, DC-SIGN ECD (Homo sapiens, UniProt Q9NNX6); assay: SPR competition (inhibition) assay, DC-SIGN ECD on BSA-mannotriose surface; format: binding; conditions: DC-SIGN ECD 20 μM
T1 construct: The ECD of DC-SIGN (residues 66–404) was overexpressed and purified as previously described; made in house
T1 sequence (Q9NNX6 66-404): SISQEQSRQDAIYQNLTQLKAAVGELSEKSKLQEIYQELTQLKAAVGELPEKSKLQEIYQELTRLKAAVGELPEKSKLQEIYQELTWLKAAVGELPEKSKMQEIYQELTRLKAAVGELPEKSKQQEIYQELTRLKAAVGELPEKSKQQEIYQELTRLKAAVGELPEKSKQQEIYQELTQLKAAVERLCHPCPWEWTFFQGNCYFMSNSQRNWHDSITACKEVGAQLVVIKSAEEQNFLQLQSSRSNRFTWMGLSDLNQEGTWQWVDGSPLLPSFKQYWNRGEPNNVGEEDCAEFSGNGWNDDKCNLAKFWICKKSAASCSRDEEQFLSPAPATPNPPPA
Protocol: (§1) The affinity of the clusters for the extracellular domain (ECD) of the DC-SIGN receptor (DC-SIGN ECD) was estimated via surface plasmon resonance (SPR) assays (Tabarani et al., [2009]). The apparent Kd was calculated in direct interaction mode using a surface functionalized in an oriented manner with DC-SIGN ECD. In this assay, tetrameric DC-SIGN ECD is attached to the surface of the sensor chip via the N-terminus of its neck oligomerization domain, thus presenting its four carbohydrate recognition domains toward the solvent, realistically mimicking the presentation of the receptor on cell surface (Porkolab et al., [2019]). For some of the low affinity ligands, in the mM range, it was not possible to determine their affinity with this assay, and therefore a competition experiment was performed providing IC50 values (Timpano et al., [2008]) (Figure 3A). […] When comparing equivalent clusters, the α1,2-di-mannoside (B series) bound with the highest affinity (Figure 3A). […] A potential explanation for this effect could be that the spacing of clusters is more important for the larger tri-mannosides.
The ECD of DC-SIGN (residues 66–404) was overexpressed and purified as previously described (Tabarani et al., [2009]). The DC-SIGN S-ECD construct used for direct interaction experiment (see below) has been overexpressed and purified as described elsewhere (Porkolab et al., [2019]). The SPR competition experiments were performed on a BIAcore T200 using a CM3 series S sensor chip. Flow cells were activated as previously described (Halary et al., [2002]). Flow cell 1 was functionalized with BSA, blocked with ethanolamine and subsequently used as a control surface. Flow cells 2 and 3 were treated with BSA-Man α1-3[Manα1-6]Man (Dextra) (60 μg/mL) in 10 mM NaOAc pH 4 and blocked with ethanolamine. The final densities on flow cells 2 and 3 were about 2,100 RU. The affinities of the various compounds for DC-SIGN ECD were evaluated via an established inhibition assay (Andreini et al., [2011]) in which DCSIGN ECD was injected at 20 μM alone or in the presence of increasing concentration of inhibitors. Injections were performed at 5 μL/min using 25 mM Tris-HCl pH 8, 150 mM NaCl, 4 mM CaCl2, 0.05% P20 surfactant as running buffer. The surface was regenerated by the injection of 50 mM EDTA. The data was analyzed in BIAcore BIAevaluation software using four parameter equation.

[2] = molecular target: T2, DC-SIGN S-ECD (Homo sapiens, UniProt Q9NNX6); assay: SPR direct interaction assay on oriented DC-SIGN S-ECD surface; format: binding; conditions: SPR direct interaction, oriented tetrameric DC-SIGN ECD surface, apparent Kd; read-out: Kdapp
T2 construct: The ECD of DC-SIGN (residues 66–404) was overexpressed and purified as previously described; made in house
T2 sequence (Q9NNX6 66-404): T1 sequence (Q9NNX6 66-404)
Protocol: as §1
The direct interaction experiments were executed on a T200 Biacore with a CM3 series S sensor chip. Contrary to the competition assay described above, in this test, DC-SIGN ECD used harbors a StreptagII in its N-terminus (DC-SIGN S-ECD) to allow its capture and functionalization onto the surface in an oriented manner. Flow cells were functionalized as previously described (Porkolab et al., [2019]). Briefly, after EDC/NHS activation, flow cells were functionalized with streptactin protein in a first step. Flow cell 1 was used as control, while other flow cells were, in a second round of activation, functionalized with 100 μg/mL of a DC-SIGN S-ECD up to a final density ranging between 2,500 and 3,000 RU, via tag specific capture and linkage by amine coupling chemistry simultaneously. The compounds were injected in running buffer of 25 mM Tris pH 8, 150 mM NaCl, 4 mM CaCl2, 0.05% Tween 20 onto the surface at increasing concentrations with a flow rate of 30 μL/min. The ligand titration led to the determination of an apparent Kd value. The data was analyzed in BIAcore BIAevaluation software for direct interaction 1:1 calculation assuming that the Kd will reflect the affinity of the ligands (glycoclusters) for the DC-SIGN oriented surface used as a whole.

[3] = test system: moDCs; assay: Internalization of biotinylated hexavalent clusters by moDCs (flow cytometry); format: cell-based, human
Protocol: For the internalization, the moDCs were incubated with clusters b6, c6, d6, and e6 for 1 h at 4°C, where after unbound ligands were washed away with ice-cold medium. Warm medium was added to the moDCs, and samples were taken at the indicated time points and put on ice. Upon staining the moDCs with fluorophore-conjugated streptavidin, we could measure the signal loss of the membrane via flow cytometry. To exclude ligand-receptor dissociation before internalization, the moDCs were fixed under gentle conditions, hereby inhibiting receptor-mediated endocytosis. On fixed moDCs the clusters remained at the surface, as no signal loss could be detected (Supplementary Figure 1D). […] The di-mannoside clusters (b6, c6, and d6) were internalized relatively fast, with a 50% uptake within 5 min (Figure 5B). The tri-mannoside cluster e6 however remained longer at the membrane surface and only a 25% uptake was seen after 30 min. Similar results were seen using a pH-sensitive fluorophore. In acidic environments, such as the endosomes and lysosomes, the fluorescence of this dye increases. Pre-complexed clusters mirrored the accelerated uptake of the di-mannoside clusters over the e6 cluster (Supplementary Figure 1E). Although the DC-SIGN mediated uptake mechanism is known (Cambi et al., [2009]), the initiation trigger for endocytosis upon DC-SIGN-ligand binding remains unclear. Recognition of the di-mannoside clusters could induce signaling leading to accelerated uptake, whereas the tri-mannoside cluster could trigger a different signaling pathway. Nonetheless, the clusters harboring the smaller mannosides are preferred. Although the binding affinity of the clusters ranged from 0.9 to 6.6 μM, the di-mannosides induce more rapid DC-SIGN internalization over the tri-mannosides, and can thus increase intracellular peptide concentrations more efficiently for further antigen processing and presentation.
Immature day 5 moDCs were harvested and washed with cold HBSS (Thermo Fischer), after which half of the moDCs were gently fixed for 20 min at RT with 1% PFA in PBS. Afterwards, 20 μM of the different biotinylated mannose-clusters in cold HBSS were added. The moDCs were incubated for 1 h on ice, and washed in cold HBSS. Subsequently, warm HBSS was added to the cells, and cells were incubated at 37°C in a shaking heating block. At the indicated time points, a sample of the cells was taken and put on ice. After the last time point, the cells were stained with Streptavidin-Alexa647 (Thermo Fisher), measured using flow cytometry (CyAn™ ADP with Summit™ Software), and further analyzed using FlowJo v10. The same procedure was used for internalization with pHrodo^TM Red Avidin (Thermo Fischer). The different biotinylated mannose-clusters were however incubated with pHrodo-Avidin (ratio 2:1) for 15 min at 37°C, prior to moDC exposure. The fluorescence upon internalization was measured using flow cytometry (BD LSRFortessa™ X-20 with FACSDiva Software), and further analyzed using FlowJo v10.

Row | SMILES | IC50 [1] [µM] | further results
1 | CC(=O)N[C@@H](CCCCn1cc(CO[C@H]2O[C@H](CO)[C@@H](O)[C@H](O[C@H]3O[C@H](CO)[C@@H](O)[C@H](O)[C@@H]3O)[C@@H]2O)nn1)C(=O)NCC(=O)N[C@@H](CCCCn1cc(CO[C@H]2O[C@H](CO)[C@@H](O)[C@H](O[C@H]3O[C@H](CO)[C@@H](O)[C@H](O)[C@@H]3O)[C@@H]2O)nn1)C(=O)NCC(=O)N[C@@H](CCCCn1cc(CO[C@H]2O[C@H](CO)[C@@H](O)[C@H](O[C@H]3O[C@H](CO)[C@@H](O)[C@H](O)[C@@H]3O)[C@@H]2O)nn1)C(=O)NCC(=O)N[C@@H](CCCCN)C(N)=O [C3] | 171.9 ± 1.45 | 
2 | CC(=O)N[C@@H](CCCCn1cc(CO[C@H]2O[C@H](CO)[C@@H](O)[C@H](O)[C@@H]2O)nn1)C(=O)NCC(=O)N[C@@H](CCCCn1cc(CO[C@H]2O[C@H](CO)[C@@H](O)[C@H](O)[C@@H]2O)nn1)C(=O)NCC(=O)N[C@@H](CCCCn1cc(CO[C@H]2O[C@H](CO)[C@@H](O)[C@H](O)[C@@H]2O)nn1)C(=O)NCC(=O)N[C@@H](CCCCN)C(N)=O [A3] | 736.7 ± 3.4 | 
3 | CC(=O)N[C@@H](CCCCn1cc(CO[C@H]2O[C@H](CO)[C@@H](O)[C@H](O)[C@@H]2O[C@H]2O[C@H](CO)[C@@H](O)[C@H](O)[C@@H]2O)nn1)C(=O)NCC(=O)N[C@@H](CCCCn1cc(CO[C@H]2O[C@H](CO)[C@@H](O)[C@H](O)[C@@H]2O[C@H]2O[C@H](CO)[C@@H](O)[C@H](O)[C@@H]2O)nn1)C(=O)NCC(=O)N[C@@H](CCCCN)C(N)=O [B2] | 189 ± 3.45 | 
4 | CC(=O)N[C@@H](CCCCn1cc(CO[C@H]2O[C@H](CO)[C@@H](O)[C@H](O[C@H]3O[C@H](CO)[C@@H](O)[C@H](O)[C@@H]3O)[C@@H]2O)nn1)C(=O)NCC(=O)N[C@@H](CCCCn1cc(CO[C@H]2O[C@H](CO)[C@@H](O)[C@H](O[C@H]3O[C@H](CO)[C@@H](O)[C@H](O)[C@@H]3O)[C@@H]2O)nn1)C(=O)NCC(=O)N[C@@H](CCCCN)C(N)=O [C2] | 567.4 ± 1.15 | 
5 | CC(=O)N[C@@H](CCCCn1cc(CO[C@H]2O[C@H](CO)[C@@H](O)[C@H](O)[C@@H]2O[C@H]2O[C@H](CO)[C@@H](O)[C@H](O)[C@@H]2O)nn1)C(=O)N[C@@H](CCCCn1cc(CO[C@H]2O[C@H](CO)[C@@H](O)[C@H](O)[C@@H]2O[C@H]2O[C@H](CO)[C@@H](O)[C@H](O)[C@@H]2O)nn1)C(=O)N[C@@H](CCCCn1cc(CO[C@H]2O[C@H](CO)[C@@H](O)[C@H](O)[C@@H]2O[C@H]2O[C@H](CO)[C@@H](O)[C@H](O)[C@@H]2O)nn1)C(=O)N[C@@H](CCCCn1cc(CO[C@H]2O[C@H](CO)[C@@H](O)[C@H](O)[C@@H]2O[C@H]2O[C@H](CO)[C@@H](O)[C@H](O)[C@@H]2O)nn1)C(=O)N[C@@H](CCCCn1cc(CO[C@H]2O[C@H](CO)[C@@H](O)[C@H](O)[C@@H]2O[C@H]2O[C@H](CO)[C@@H](O)[C@H](O)[C@@H]2O)nn1)C(=O)N[C@@H](CCCCn1cc(CO[C@H]2O[C@H](CO)[C@@H](O)[C@H](O)[C@@H]2O[C@H]2O[C@H](CO)[C@@H](O)[C@H](O)[C@@H]2O)nn1)C(=O)NCC(=O)N[C@@H](CCCCN)C(N)=O [B6] |  | Kd [2]: 0.95 µM and 0.946 µM and 0.9 µM; internalization by moDCs (loss of surface streptavidin signal) ([3]; 20 μM cluster, live moDCs): rapidly internalized; internalization by moDCs (pHrodo-avidin fluorescence increase) ([3]; clusters pre-complexed with pH-sensitive dye): internalized rapidly; uptake by immature moDCs ([3]; within 5 min at 37°C, 20 μM cluster): 50%
6 | CC(=O)N[C@@H](CCCCn1cc(CO[C@H]2O[C@H](CO)[C@@H](O)[C@H](O)[C@@H]2O[C@H]2O[C@H](CO)[C@@H](O)[C@H](O)[C@@H]2O)nn1)C(=O)NCC(=O)N[C@@H](CCCCN)C(N)=O [B1] | 2340 ± 109 | 
7 | CC(=O)N[C@@H](CCCCn1cc(CO[C@H]2O[C@H](CO)[C@@H](O)[C@H](O)[C@@H]2O)nn1)C(=O)NCC(=O)N[C@@H](CCCCn1cc(CO[C@H]2O[C@H](CO)[C@@H](O)[C@H](O)[C@@H]2O)nn1)C(=O)NCC(=O)N[C@@H](CCCCN)C(N)=O [A2] | 2600 ± 95 | 

Now from value to molecule, other results behind:

Row | IC50 [1] [µM] | SMILES | further results
8 | 1520 ± 250 | CC(=O)N[C@@H](CCCCn1cc(CO[C@H]2O[C@H](CO[C@H]3O[C@H](CO)[C@@H](O)[C@H](O)[C@@H]3O)[C@@H](O)[C@H](O[C@H]3O[C@H](CO)[C@@H](O)[C@H](O)[C@@H]3O)[C@@H]2O)nn1)C(=O)NCC(=O)N[C@@H](CCCCN)C(N)=O [E1] | 
9 | 6960 ± 3040 | CC(=O)N[C@@H](CCCCn1cc(CO[C@H]2O[C@H](CO[C@H]3O[C@H](CO)[C@@H](O)[C@H](O)[C@@H]3O)[C@@H](O)[C@H](O)[C@@H]2O)nn1)C(=O)NCC(=O)N[C@@H](CCCCN)C(N)=O [D1] | 
10 | 306 ± 4.75 | CC(=O)N[C@@H](CCCCn1cc(CO[C@H]2O[C@H](CO[C@H]3O[C@H](CO)[C@@H](O)[C@H](O)[C@@H]3O)[C@@H](O)[C@H](O[C@H]3O[C@H](CO)[C@@H](O)[C@H](O)[C@@H]3O)[C@@H]2O)nn1)C(=O)NCC(=O)N[C@@H](CCCCn1cc(CO[C@H]2O[C@H](CO[C@H]3O[C@H](CO)[C@@H](O)[C@H](O)[C@@H]3O)[C@@H](O)[C@H](O[C@H]3O[C@H](CO)[C@@H](O)[C@H](O)[C@@H]3O)[C@@H]2O)nn1)C(=O)NCC(=O)N[C@@H](CCCCN)C(N)=O [E2] | 
